Laboratory results published in patent publication US6048852A, “β-thiopropionyl-aminoacid derivatives and their use as β-lactamase inhibitors” (SmithKline Beecham p.l.c., priority 1996, dated 2000).
pIC50: −log10 of the molar value. Like-named read-outs stand apart in the source and are kept apart here.

What was measured:
[1] = system: Bacteroides fragis 262 strain, which produces CfiA metallo-β-lactamase; test: Antibacterial activity (MIC) in combination with meropenem; assay type: cell-based, Bacteroides fragilis
From the text: Antibacterial activity of compounds of the invention in combination with the carbapenem antibiotic, meropenem, against the Bacteroides fragis 262 strain, which produces CfiA metallo-β-lactamase:
[MIC=minimum inhibitory concentration (μg/ml)]

[2] = target: B. fragilis CfiA metallo-β-lactamase (Bacteroides fragilis, UniProt P25910); test: I50 screen, nitrocefin reporter substrate, CfiA metallo-β-lactamase; assay type: biochemical; settings: 25 mM PIPES pH 7, 37° C., nitrocefin 91 μM, 5 minute preincubation, Zn2+ 100 μM; enumerated Examples; read-out: I50 values against B. fragilis CfiA metallo-β-lactamase
B. fragilis CfiA metallo-β-lactamase, sequence (P25910 19-249): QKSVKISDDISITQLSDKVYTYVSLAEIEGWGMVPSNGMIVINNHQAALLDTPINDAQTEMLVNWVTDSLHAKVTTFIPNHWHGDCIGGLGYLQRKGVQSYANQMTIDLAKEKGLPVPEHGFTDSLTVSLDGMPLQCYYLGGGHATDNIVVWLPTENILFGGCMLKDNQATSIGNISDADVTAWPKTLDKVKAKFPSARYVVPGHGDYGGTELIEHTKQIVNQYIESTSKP
Procedure: The inhibitory activity of the compounds of the invention was measured in 25 mM PIPES pH 7 buffer at 10 concentrations (1000, 333, 111, 37, 12.3, 4.1, 1.4, 0.46, 0.15 and 0.05 μM) at 37° C. using nitrocefin (91 μM final concentration) as the reporter substrate. The assays were performed with a 5 minute preincubation of enzyme and inhibitor and were conducted in the presence of added zinc sulphate (Zn^2+ 100 μM, final concentration). the methodology is described in detail in the following references: Payne et al (1991), J. Antimicrob. Chemother., 28:255; Payne et al (1994), Antimicrob. Agents and Chemother., 38:767.

[3] = read-out: MIC (μg/ml) of compound alone

**Q.** How did the MIC [1, 3] turn out when `CC(S)C(Cc1ccccc1)C(=O)N[C@@H](C(=O)O)c1ccccc1` (single isomer, unassigned) [Example 50 (all isomers), N-[2'-Benzyl-3'-mercaptobutanoyl]-D-phenylglycine] was run?
**A.** Its MIC is > 128 µg/mL.

**Q.** `O=C(NC(C(=O)O)c1ccc(O)c([N+](=O)[O-])c1)C(CS)Cc1ccccc1` (stereo not drawn) [Example 14, N-[2'-Benzyl-3'-mercaptopropionyl]-4-hydroxy-3-nitrophenylglycine] was tested. Which pIC50 [2] did it give?
**A.** Its pIC50 is > 6.00.

**Q.** What about the MIC [1, 3] of the same compound?
**A.** The MIC was > 128 µg/mL.

**Q.** How did the pIC50 [2] turn out when `O=C(N[C@@H](Cc1c[nH]c2ccccc12)C(=O)O)C(CS)Cc1ccccc1` (stereo partly drawn) [5d), N-[2'-Benzyl-3'-mercaptopropionyl]tryptophan] was run?
**A.** Its pIC50 is > 6.00.

**Q.** How did the pIC50 [2] turn out when `O=C(N[C@@H](C(=O)O)c1ccccc1)C(CS)CCOc1ccccc1` (stereo partly drawn) [Example 42, N-[2'-Mercaptomethyl-4'-phenoxybutanoyl]-D-phenylglycine] was run?
**A.** The pIC50 was > 6.00.

**Q.** `O=C(N[C@@H](C(=O)O)c1ccccc1)C(CS)CCc1ccc2nc(C(F)(F)F)ccc2c1` (single isomer, unassigned) [47 (Isomer B), N-[2'-(Mercaptomethyl)-4'-(2"-trifluoromethylquinolin-6"-yl)butanoyl]-D-phenylglycine] was tested. Which pIC50 [2] did it give?
**A.** Its pIC50 is > 6.00.

**Q.** With `O=C(N[C@@H](C(=O)O)c1ccccc1)C(CS)C1CCc2ccccc21` (stereo partly drawn) [Example 41, N-[2'-(Indan-1-yl)-3'-mercaptopropanoyl]-D-phenylglycine] as the compound, how does the pIC50 [2] read?
**A.** The pIC50 was > 6.00.

**Q.** `O=C(N[C@@H](C(=O)O)c1ccccc1)C(CS)Cc1ccccc1` (stereo partly drawn) [Example 9k), N-[2'-Benzyl-3'-mercaptopropionyl]-D-phenylglycine] was tested. Which pIC50 [2] did it give?
**A.** The pIC50 was > 6.00.

**Q.** What about the MIC [1, 3] of the same compound?
**A.** Its MIC is > 128 µg/mL.

**Q.** How did the pIC50 [2] turn out when `O=C(NC(C(=O)O)c1ccsc1)C(CS)Cc1ccccc1` (stereo not drawn) [Example 43, N-[2'-Benzyl-3'-mercaptopropionyl]-2-(3"-thienyl)glycine] was run?
**A.** The pIC50 was > 6.00.

**Q.** What about the MIC [1, 3] of the same compound?
**A.** The MIC was > 128 µg/mL.

**Q.** `CCC(S)C(Cc1ccccc1)C(=O)N[C@@H](C(=O)O)c1ccccc1` (stereo partly drawn) [Example 49, N-[2-Benzyl-3-mercaptopentanoyl]-D-phenylglycine] was tested. Which MIC [1, 3] did it give?
**A.** The MIC was > 128 µg/mL.

**Q.** How did the pIC50 [2] turn out when `O=C(N[C@@H](C(=O)O)c1ccccc1)C(CS)CCc1ccc(OC(F)F)cc1` (stereo partly drawn) [Example 55, N-[2'-Mercaptomethyl-4'-(4"-difluoromethoxphenyl)butanoyl)-D-phenylglycine] was run?
**A.** Its pIC50 is > 6.00.

**Q.** And the MIC [1, 3]?
**A.** The MIC was > 128 µg/mL.

**Q.** How did the MIC ([1]; read-out: MIC (μg/ml) of meropenem alone) turn out when `C[C@@H](O)[C@H]1C(=O)N2C(C(=O)O)=C(S[C@@H]3CN[C@H](C(=O)N(C)C)C3)[C@H](C)[C@H]12` [meropenem, reference compound] was run?
**A.** Its MIC is > 128 µg/mL.

**Q.** `O=C(NC(C(=O)O)c1ccco1)C(CS)Cc1ccccc1` (stereo not drawn) [Example 30, N-[2'-Benzyl-3'-mercaptopropionyl]-2-(2"-furanyl)glycine] was tested. Which pIC50 [2] did it give?
**A.** The pIC50 was > 6.00.

**Q.** Which results are given for `O=C(N[C@@H](C(=O)O)c1ccccc1)[C@@H](CS)CCCc1ccccc1` [38f), N-[(S)-2'-Mercaptomethyl-5'-phenylpentanoyl]-D-phenylglycine]?
**A.** pIC50 [2]: > 6.00; MIC [1, 3]: > 128 µg/mL

**Q.** With `O=C(NC(C(=O)O)c1ccccc1)C(CS)Cc1ccccc1` (stereo not drawn) [Example 9e), N-[2'-Benzyl-3'-mercaptopropionyl]phenylglycine] as the compound, how does the pIC50 [2] read?
**A.** Its pIC50 is > 6.00.

**Q.** How did the pIC50 [2] turn out when `O=C(N[C@@H](C(=O)O)c1ccccc1)[C@@H](CS)CCCCCc1ccccc1` [40f), N-[(S)-2'-Mercaptomethyl-7'-phenylheptanoyl]-D-phenylglycine] was run?
**A.** The pIC50 was > 6.00.

**Q.** What does the source list for `CC(C)CC(C(=O)N[C@@H](C(=O)O)c1ccccc1)C(C)S` (stereo partly drawn) [Example 27, N-[2'-Isobutyl-3'-mercaptobutanoyl]-D phenylglycine]?
**A.** pIC50 [2]: > 6.00; MIC [1, 3]: > 128 µg/mL

**Q.** `CC(S)C(Cc1ccccc1)C(=O)N[C@@H](C(=O)O)c1ccccc1` (single isomer, unassigned) [Example 50 (Isomer B), N-[2'-Benzyl-3'-mercaptobutanoyl]-D-phenylglycine] was tested. Which pIC50 [2] did it give?
**A.** Its pIC50 is > 6.00.

**Q.** With `O=C(N[C@@H](C(=O)O)c1ccccc1)C(CS)CCCCc1ccccc1` (stereo partly drawn) [Example 39, N-[2'-Mercaptomethyl-6'-phenylhexanoyl]-D-phenylglycine] as the compound, how does the pIC50 [2] read?
**A.** The pIC50 was > 6.00.

**Q.** With `O=C(N[C@@H](C(=O)O)c1ccc(F)cc1)C(CS)Cc1ccccc1` (stereo partly drawn) [Example 16, N-[2'-Benzyl-3'-mercaptopropionyl]-4-fluoro-D-phenylglycine] as the compound, how does the pIC50 [2] read?
**A.** Its pIC50 is > 6.00.

**Q.** `CC(S)C(Cc1ccccc1)C(=O)N[C@@H](C(=O)O)c1ccccc1` (single isomer, unassigned) [Example 50 (Isomer C), N-[2'-Benzyl-3'-mercaptobutanoyl]-D-phenylglycine] was tested. Which pIC50 [2] did it give?
**A.** Its pIC50 is > 6.00.

**Q.** Which MIC [1, 3] does the source give for `O=C(N[C@@H](C(=O)O)c1ccccc1)C(Cc1ccccc1)C1(S)CC1` (stereo partly drawn) [Example 52, N-[2'-Benzyl-2'-(1"-mercaptocyclopropyl)acetyl]-D-phenylglycine] here?
**A.** Its MIC is > 128 µg/mL.

**Q.** How did the pIC50 [2] turn out when `O=C(N[C@@H](C(=O)O)c1cccc([N+](=O)[O-])c1)C(CS)Cc1ccccc1` (stereo partly drawn) [Example 18, N-[2'-Benzyl-3'-mercaptopropionyl]-3-nitro-D-phenylglycine] was run?
**A.** Its pIC50 is > 6.00.

**Q.** With `O=C(NC(C(=O)O)c1ccccc1F)C(CS)Cc1ccccc1` (stereo not drawn) [Example 19, N-[2'-Benzyl-3'-mercaptopropionyl]-2-fluorophenylglycine] as the compound, how does the pIC50 [2] read?
**A.** The pIC50 was > 6.00.

**Q.** What about the MIC [1, 3] of the same compound?
**A.** Its MIC is > 128 µg/mL.

**Q.** `O=C(O)c1ccc(CCC(CS)C(=O)N[C@@H](C(=O)O)c2ccccc2)cc1` (single isomer, unassigned) [46 (Isomer A), N-[2'-(Mercaptomethyl)-4'-(4"-hydroxycarbonyl)phenylbutanoyl]-D-phenylglycine] was tested. Which pIC50 [2] did it give?
**A.** Its pIC50 is > 6.00.

**Q.** `COc1ccc(C(NC(=O)C(CS)Cc2ccccc2)C(=O)O)cc1` (stereo not drawn) [Example 13, N-[2'-Benzyl-3'-mercaptopropionyl]4-methoxyphenylglycine] was tested. Which pIC50 [2] did it give?
**A.** Its pIC50 is > 6.00.

**Q.** What about the MIC [1, 3] of the same compound?
**A.** The MIC was > 128 µg/mL.

**Q.** Which results are given for `O=C(N[C@@H](C(=O)O)c1ccccc1)[C@@H](CS)CCc1ccccc1` [37f), N-[(S)-2'-Mercaptomethyl-4'-phenylbutanoyl]-D-phenylglycine]?
**A.** pIC50 [2]: > 6.00; MIC [1, 3]: > 128 µg/mL

**Q.** `Cn1cc(C(NC(=O)C(CS)Cc2ccccc2)C(=O)O)cn1` (stereo not drawn) [Example 25, N-[2'-Benzyl-3'-mercaptopropionyl]4-[1-methylisoiinidazolyl]glycine] was tested. Which pIC50 [2] did it give?
**A.** The pIC50 was > 6.00.

**Q.** `O=C(N[C@@H](C(=O)O)c1ccc(O)c(O)c1)C(CS)Cc1ccccc1` (stereo partly drawn) [Example 15, N-[2'-Benzyl-3'-mercaptopropionyl]-3,4-dihydroxy-D-phenylglycine] was tested. Which pIC50 [2] did it give?
**A.** The pIC50 was > 6.00.

**Q.** With `Cc1ccc(C(NC(=O)C(CS)Cc2ccccc2)C(=O)O)cc1` (stereo not drawn) [Example 24, N-[2'-Benzyl-3'-mercaptopropionyl]-4-methylphenylglycine] as the compound, how does the pIC50 [2] read?
**A.** Its pIC50 is > 6.00.

**Q.** And the MIC [1, 3]?
**A.** Its MIC is > 128 µg/mL.

**Q.** `O=C(N[C@H](Cc1c[nH]c2ccccc12)C(=O)O)C(CS)Cc1ccccc1` (stereo partly drawn) [5e), N-[2'-Benzyl-3'-mercaptopropionyl]-D-tryptophan] was tested. Which pIC50 [2] did it give?
**A.** The pIC50 was > 6.00.

**Q.** How did the pIC50 [2] turn out when `CC(C)CC(CS)C(=O)N[C@@H](C(=O)O)c1ccccc1` (stereo partly drawn) [Example 23, N-(4-Methyl-2-mercaptomethylpentanoyl]-D-phenylglycine] was run?
**A.** The pIC50 was > 6.00.

**Q.** And the MIC [1, 3]?
**A.** Its MIC is > 128 µg/mL.

**Q.** How did the pIC50 [2] turn out when `O=C(NC(C(=O)O)c1cccs1)C(CS)Cc1ccccc1` (stereo not drawn) [Example 20, N-[2'-Benzyl-3'-mercaptopropionyl]-2-thienylglycine] was run?
**A.** Its pIC50 is > 6.00.

**Q.** How did the pIC50 [2] turn out when `CC(S)C(CCc1ccccc1)C(=O)N[C@@H](C(=O)O)c1ccccc1` (stereo partly drawn) [Example 44, N-[2'-(1"-Mercaptoethyl)-4'-phenylbutanoyl]-D-phenylglycine] was run?
**A.** The pIC50 was > 6.00.

**Q.** `CC(CS)C(=O)N[C@@H](C(=O)O)c1ccccc1` (stereo partly drawn) [Example 22, N-[2'-Methyl-3'-mercaptopropionyl]-D-phenylglycine] was tested. Which pIC50 [2] did it give?
**A.** The pIC50 was > 6.00.

**Q.** What about the MIC [1, 3] of the same compound?
**A.** The MIC was > 128 µg/mL.

**Q.** `O=C(NC(C(=O)O)c1cc2ccccc2s1)C(CS)Cc1ccccc1` (stereo not drawn) [Example 31, N-[2'-Benzyl-3'-mercaptopropionyl]-2-(2"-benzothienyl)glycine] was tested. Which pIC50 [2] did it give?
**A.** The pIC50 was > 6.00.

**Q.** What about the MIC [1, 3] of the same compound?
**A.** Its MIC is > 128 µg/mL.

**Q.** `O=C(N[C@@H](C(=O)O)c1ccccc1)[C@@H](CS)Cc1ccccc1` [9i), [2'S]-N-[2'-Benzyl-3'-mercaptopropionyl]-D-phenylglycine] was tested. Which pIC50 [2] did it give?
**A.** Its pIC50 is > 6.00.

**Q.** What does the source list for `O=C(N[C@@H](C(=O)O)c1ccc(O)cc1)C(CS)Cc1ccccc1` (stereo partly drawn) [Example 12, N-[2'-Benzyl-3'-mercaptopropionyl]-4-hydroxy-D-phenylglycine]?
**A.** pIC50 [2]: > 6.00; MIC [1, 3]: > 128 µg/mL

**Q.** With `O=C(NC(C(=O)O)c1cccc(F)c1)C(CS)Cc1ccccc1` (stereo not drawn) [Example 17, N-[2'-Benzyl-3'-mercaptopropionyl]-3-fluorophenylglycine] as the compound, how does the pIC50 [2] read?
**A.** Its pIC50 is > 6.00.

**Q.** What does the source list for `O=C(NC(C(=O)O)c1ccoc1)C(CS)Cc1ccccc1` (stereo not drawn) [Example 32, N-[2'-Benzyl-3'-mercaptopropionyl]-2-(3"-furanyl)glycine]?
**A.** pIC50 [2]: > 6.00; MIC [1, 3]: > 128 µg/mL
